Test results published in patent publication US9469650B2, “Melampomagnolide B derivatives” (BOARD OF TRUSTEES OF THE UNIVERSITY OF ARKANSAS, priority 2013, dated 2016).
Read-outs that look alike come from different tables or passages of the source.

Experiments:
NCI-H226 = experiment: panel of 60 human tumor cell lines, growth inhibition (Non-Small Cell Lung Cancer); settings: Homo sapiens
NCI-H460 = experiment: as above; settings: Homo sapiens
SN12C = experiment: panel of 60 human tumor cell lines, growth inhibition (Renal Cancer); settings: Homo sapiens
ACHN = experiment: as above; settings: Homo sapiens
SF-539 = experiment: panel of 60 human tumor cell lines, growth inhibition (CNS Cancer); settings: Homo sapiens
CCRF-CEM = experiment: panel of 60 human tumor cell lines, growth inhibition (Leukemia); settings: Homo sapiens
KM12 = experiment: panel of 60 human tumor cell lines, growth inhibition (Colon Cancer)
MDA-MB-435 = experiment: panel of 60 human tumor cell lines, growth inhibition (Melanoma); settings: Homo sapiens
NCI-H522 = experiment: panel of 60 human tumor cell lines, growth inhibition (Non-Small Cell Lung Cancer); settings: Homo sapiens
NCI-H23 = experiment: as above; settings: Homo sapiens
HCT-15 = experiment: panel of 60 human tumor cell lines, growth inhibition (Colon Cancer); settings: Homo sapiens
COLO 205 = experiment: as above; settings: Homo sapiens
HT29 = experiment: as above; settings: for Percent Growth: HT29
M14 = experiment: panel of 60 human tumor cell lines, growth inhibition (Melanoma); settings: Homo sapiens
MDA-MB-231/ATCC = experiment: panel of 60 human tumor cell lines, growth inhibition (Breast Cancer); settings: Homo sapiens
PC-3 = experiment: panel of 60 human tumor cell lines, growth inhibition (Prostate Cancer); settings: Homo sapiens
HOP-92 = experiment: panel of 60 human tumor cell lines, growth inhibition (Non-Small Cell Lung Cancer); settings: Homo sapiens

Structure (SMILES): C=C1C(=O)O[C@H]2[C@H]1CC/C(COC(=O)NCCN1CCCC1)=C\CC[C@@]1(C)O[C@@H]21 [JVM 59, ((1aR,7aS,10aS,10bS,E)-1a-methyl-8-methylene-9-oxo-1a,2,3,6,7,7a,8,9,10a,10b-decahydrooxireno[2′,3′:9,10]cyclodeca[1,2-b]furan-5-yl)methyl-(2-(pyrrolidin-1-yl)ethyl)carbamate]
- GI50 (NCI-H226; NCI-H226): 35.3 µM
- CC50 (NCI-H226; NCI-H226, read-out: LC50): > 100 µM
- IC (TGI) (NCI-H226; NCI-H226, read-out: TGI): > 100 µM
- GI50 (NCI-H460; NCI-H460): 22.3 µM
- CC50 (NCI-H460; NCI-H460, read-out: LC50): > 100 µM
- IC (TGI) (NCI-H460; NCI-H460, read-out: TGI): 51.4 µM
- GI50 (SN12C): 17.7 µM
- CC50 (SN12C; read-out: LC50): 85.5 µM
- IC (TGI) (SN12C; read-out: TGI): 39 µM
- GI50 (ACHN): 3.8 µM
- CC50 (ACHN; read-out: LC50): 39.4 µM
- IC (TGI) (ACHN; read-out: TGI): 14.7 µM
- GI50 (SF-539; SF-539): 15 µM
- CC50 (SF-539; SF-539, read-out: LC50): 54.1 µM
- IC (TGI) (SF-539; SF-539, read-out: TGI): 28.5 µM
- GI50 (CCRF-CEM; 5-dose assay): 2.49 µM
- GI50 (CCRF-CEM; five dose): 2.49 µM
- CC50 (CCRF-CEM; read-out: LC50): 64.3 µM
- IC (TGI) (CCRF-CEM; read-out: TGI): 9.12 µM
- GI50 (KM12; Homo sapiens, KM12): 23.9 µM
- CC50 (KM12; Homo sapiens, KM12, read-out: LC50): > 100 µM
- TGI (KM12; KM12, five dose): 7.00E−5
- Percent Growth (KM12; KM12, Log10 Concentration −4.0): −17%
- Percent Growth (KM12; KM12, Log10 Concentration −5.0): 90%
- Percent Growth (KM12; KM12, Log10 Concentration −6.0): 96%
- Percent Growth (KM12; KM12, Log10 Concentration −7.0): 95%
- Percent Growth (KM12; KM12, Log10 Concentration −8.0): 96%
- GI50 (MDA-MB-435; MDA-MB-435): 6.56 µM
- CC50 (MDA-MB-435; MDA-MB-435, read-out: LC50): 53.4 µM
- IC (TGI) (MDA-MB-435; MDA-MB-435, read-out: TGI): 21.1 µM
- GI50 (NCI-H522; NCI-H522): 1.78 µM
- CC50 (NCI-H522; NCI-H522, read-out: LC50): 32.2 µM
- IC (TGI) (NCI-H522; NCI-H522, read-out: TGI): 5.05 µM
- GI50 (NCI-H23; NCI-H23): 16.4 µM
- CC50 (NCI-H23; NCI-H23, read-out: LC50): 80.4 µM
- IC (TGI) (NCI-H23; NCI-H23, read-out: TGI): 36.3 µM
- GI50 (HCT-15; HCT-15): 13.5 µM
- CC50 (HCT-15; HCT-15, read-out: LC50): 91.2 µM
- IC (TGI) (HCT-15; HCT-15, read-out: TGI): 35.1 µM
- GI50 (COLO 205; COLO 205): 4.78 µM
- CC50 (COLO 205; COLO 205, read-out: LC50): 45 µM
- IC (TGI) (COLO 205; COLO 205, read-out: TGI): 16.8 µM
- Percent Growth (HT29; Log10 Concentration −4.0): −76%
- Percent Growth (HT29; Log10 Concentration −5.0): 59%
- Percent Growth (HT29; Log10 Concentration −6.0): 99%
- Percent Growth (HT29; Log10 Concentration −7.0): 101%
- Percent Growth (HT29; Log10 Concentration −8.0): 98%
- GI50 (HT29; Homo sapiens, HT-29): 11.7 µM
- CC50 (HT29; Homo sapiens, HT-29, read-out: LC50): 64.4 µM
- IC (TGI) (HT29; Homo sapiens, HT-29, read-out: TGI): 27.4 µM
- GI50 (M14; M14): 9.65 µM
- CC50 (M14; M14, read-out: LC50): 58.1 µM
- IC (TGI) (M14; M14, read-out: TGI): 24 µM
- Percent Growth (HL-60(TB); Log10 Concentration −4.0): −63%
- Percent Growth (HL-60(TB); Log10 Concentration −5.0): 22%
- Percent Growth (HL-60(TB); Log10 Concentration −6.0): 95%
- Percent Growth (HL-60(TB); Log10 Concentration −7.0): 96%
- Percent Growth (HL-60(TB); Log10 Concentration −8.0): 88%
- GI50 (MDA-MB-231/ATCC; MDA-MB-231): 15.2 µM
- CC50 (MDA-MB-231/ATCC; MDA-MB-231, read-out: LC50): 61.6 µM
- IC (TGI) (MDA-MB-231/ATCC; MDA-MB-231, read-out: TGI): 30.6 µM
- GI50 (PC-3; PC-3): 15.7 µM
- CC50 (PC-3; PC-3, read-out: LC50): 70.1 µM
- IC (TGI) (PC-3; PC-3, read-out: TGI): 33.2 µM
- GI50 (HOP-92; HOP-92, HOP-92, five dose): 2.25 µM
- GI50 (HOP-92; HOP-92, HOP-92, 5-dose assay): 2.25 µM
- CC50 (HOP-92; HOP-92, read-out: LC50): 32.3 µM
- IC (TGI) (HOP-92; HOP-92, read-out: TGI): 7.86 µM
